What all share (type): cell-based, mouse
One assay concerns IRS-2 mRNA. Briefly: IRS-2 mRNA expression (Northern blots) in differentiated 3T3-L1 adipocytes. Conditions: for effect on IRS-2 gene expression: FIG. 2: 10 μM darglitazone with 100 nM insulin, 10 μM WY14643 with or without insulin, 100 nM progesterone, 200 μM 8-BrcAMP. On the procedure: (§1) 3T3-L1 fibroblasts were grown and differentiated into adipocytes according to Rubin et al., 1977). At least 90% of the cells had acquired the adipocyte phenotype 6 days after initiating differentiation. Eight days after differentiation, the medium was changed and the various agents added for the times indicated in the Results.
(§2) Total cellular RNA was isolated from cells with guanidinium thiocyanate, as described (Chirgwin et al. 1979). Northern blot analyses were performed on total cellular RNA (30 μg) with labeled cDNA probes made against β-actin as housekeeping gene, mouse IRS-1 (bp 1333-2335) and mouse IRS-2 (bp 2987-3325) (kindly provided by Drs. J. Pierce and L-M Wang, NCI, NIH), rodent GLUT4 (bp 121-2128, Accession Nr NM 001042, kindly provided by Dr. Sam W. Cushman, NIDDK, NIH) and PKB/Akt using a PCR fragment against PKBβ (bp 282-1130, Accession Nr M95936) in a common sequence for PKBα, PKBβ and PKBγ. 5′ sequence […] and 3′ sequence […] were used as PCR primers (SEQ. ID. NO. 13 and 14, respectively).

The test system of the next assay is PKB/Akt mRNA. Briefly: PKB/Akt mRNA expression (Northern blots) in differentiated 3T3-L1 adipocytes. Conditions: 48 hrs; insulin alone or combined with PPARγ ligand; same experiments as IRS-2. On the procedure:
as §1, §2

The next assay has as its system IRS-1 mRNA. Briefly: IRS-1 mRNA expression (Northern blots) in differentiated 3T3-L1 adipocytes. The conditions noted are these: 48 hrs; insulin alone or combined with PPARγ ligand; same experiments as IRS-2. On the procedure:
as §1, §2

A further assay concerns IRS-1 protein. Briefly: IRS-1 protein expression (immunoblot) in differentiated 3T3-L1 cells. As for the experimental part:
(§3) 3T3-L1 fibroblasts were grown and differentiated into adipocytes according to Rubin et al., 1977). At least 90% of the cells had acquired the adipocyte phenotype 6 days after initiating differentiation. Eight days after differentiation, the medium was changed and the various agents added for the times indicated in the Results. Cell lysates were prepared as described by Rondinone et al. 1997. Equal amounts of protein were separated by SDS/PAGE, transferred and immunoblotted with appropriate antibodies against the specific proteins. Phosphotyrosines were immunoblotted with antibody PY99 (Transduction Laboratories, Lexington, N.Y.), GLUT4 with an antibody kindly provided by Dr. Sam W. Cushman (NIDDK, NIH), IRS-1 and IRS-2 with antibodies from Upstate Biotechnology, Inc. (Lake Placid, N.Y.) and PKB/Akt with antibodies from Biolab (Boston, Mass.). Immunoprecipitations were performed as described (Rondinone et at., 1997) and individual proteins were detected by blotting with horseradish peroxidase-linked secondary antibodies and using enhanced chemiluminescence (Nycomed Amersham plc., UK).

A further assay relates to IRS-2 protein. The experiment in a line: IRS-2 protein expression (immunoblot) in differentiated 3T3-L1 cells. As for the experimental part:
as §3
(In western blotting, separated proteins are transferred to a membrane and probed.)

The subject of another assay is PKB/Akt protein. Briefly: PKB/Akt protein expression in differentiated 3T3-L1 cells. Conditions: pioglitazone and/or insulin for 48 hrs. As for the experimental part:
as §3

A further assay relates to PKB/Akt phosphorylation. The experiment in a line: Acute insulin-stimulated PKB/Akt phosphorylation (immunoblot) in pre-cultured 3T3-L1 adipocytes. Conditions: cells cultured with agent alone for 48 hrs, serum-starved 3 hrs, then 100 nM insulin 10 min.

Procedure for PKB/Akt phosphorylation: Lysates were prepared from cells that had been cultured for 48 hrs as in FIG. 3A, serum-starved for 3 hrs, and then stimulated with 100 nM insulin for 10 min. Following separation on 7.5% SDS-PAGE, the proteins were immunoblotted with antibodies recognizing insulin-stimulated phosphoserine (PS-PKB) and phosphothreonine (PThr-PKB) PKB/Akt.
To study the acute effect of insulin, the cells were serum-deprived for 3 hrs before adding 100 nM insulin for 15 min.
The present inventor also examined the acute effect of insulin on down-stream activation of PKB/Akt in cells that had been cultured with pioglitazone for 48 hrs, washed and serum-starved for 3 hrs in fresh medium. […] Insulin (100 nM) was then added for 10 min to the serum-starved cells.

In the case of `Nc1ncnc2c1nc(Br)n2[C@@H]1O[C@@H]2COP(=O)(O)O[C@H]2[C@H]1O` [8-BrcAMP], the “effect on IRS-2 gene expression” value with IRS-2 mRNA (48 hrs) is on record as “no effects were seen”.
Regarding `Cc1cccc(Nc2cc(Cl)nc(SCC(=O)O)n2)c1C` [WY14643], the “average increase of IRS-2 mRNA expression” value with IRS-2 mRNA (10 μM, n=2, also when insulin was added (FIG. 2 middle)) came out at 9%. The “effect on IRS-2 gene expression” value in the assay with IRS-2 mRNA (48 hrs) is “completely without effect”. In the assay with PKB/Akt mRNA, the “gene expression of PKB/Akt” value is given as “no effect was seen”. Moreover, the “gene expression of IRS-1” value in the assay with IRS-1 mRNA is given as “no effect was seen”.
Turning to `Cc1oc(-c2ccccc2)nc1CCC(=O)c1ccc(CC2SC(=O)NC2=O)cc1` (stereo not drawn) [darglitazone], the “gene expression of PKB/Akt” value in the assay on PKB/Akt mRNA is reported as “Neither insulin alone nor when combined with the PPARγ ligands, pioglitazone or darglitazone (not shown), altered”. Moreover, the “gene expression of IRS-1” value in the assay on IRS-1 mRNA is “Neither insulin alone nor when combined with the PPARγ ligands, pioglitazone or darglitazone (not shown), altered”.
`CCc1ccc(CCOc2ccc(CC3SC(=O)NC3=O)cc2)nc1` (stereo not drawn) [pioglitazone]: the “change of IRS-1 protein expression” value with IRS-1 protein (insulin and pioglitazone combined, three experiments, range 18-39%) is listed as −31%; with IRS-1 protein (pioglitazone alone, three experiments) it was “+7%”. The “average increase of IRS-2 mRNA expression” value with IRS-2 mRNA (1 μM, n=2) was found to be 230%; in the assay with IRS-2 mRNA (10 μM, same experiments as 1 μM, n=2), 292%. In addition, in the assay with IRS-2 mRNA (10 μM pioglitazone in combination with 100 nM insulin, 48 hrs (FIG. 1A top)), the “increase of IRS-2 mRNA” value is reported as around 4 fold. Also, the “increase of IRS-2 mRNA levels relative to β-actin mRNA” value in the assay with IRS-2 mRNA (after 48 hrs, 5 experiments (FIG. 1B top)) is reported as 3-5 fold. The “average increase of IRS-2 protein expression” value in the assay on IRS-2 protein (after 48 hrs) was determined as 36%.
Regarding `CC(=O)[C@H]1CC[C@H]2[C@@H]3CCC4=CC(=O)CC[C@]4(C)[C@H]3CC[C@]12C` [progesterone], the “effect on IRS-2 gene expression” value in the assay with IRS-2 mRNA (48 hrs) is recorded as “no effects were seen”.
With insulin, in the assay with IRS-1 protein (insulin alone, three experiments, range 25-39%), the “decrease of IRS-1 protein expression” value came out at 33%. Moreover, the IRS-1 protein expression entry in the assay with IRS-1 protein (pioglitazone alone or insulin alone, chronic (FIG. 3B bottom)) was “reduced”. For the same compound, the PKB/Akt protein expression result with PKB/Akt protein is “not changed”. The “further increase of IRS-2 mRNA by addition of insulin to pioglitazone” value with IRS-2 mRNA (100 nM insulin added to 10 μM pioglitazone, 48 hrs (FIG. 1A bottom)) is on record as “no further increase”. Further, in the assay with IRS-2 mRNA (insulin alone (100 nM), 48 hrs), the IRS-2 gene expression entry is reported as “did not change”. For the same compound, in the assay on PKB/Akt mRNA, the “gene expression of PKB/Akt” value is “Neither insulin alone nor when combined with the PPARγ ligands, pioglitazone or darglitazone (not shown), altered”. Further, the IRS-2 protein expression result with IRS-2 protein (48 hrs, 10 μM pioglitazone or 100 nM insulin (FIG. 1B bottom)) is reported as “not changed”. Also, in the assay with IRS-1 mRNA, the “gene expression of IRS-1” value is “Neither insulin alone nor when combined with the PPARγ ligands, pioglitazone or darglitazone (not shown), altered”. Further, the “acute effect of insulin on PKB/Akt phosphorylation” value in the assay with PKB/Akt phosphorylation is given as “markedly reduced”.

The values are drawn from patent publication US6835819B2, “Sequences and their use” (Metcon Medicin AB, priority 2000, dated 2004).
